Test results: patent US20260344668A1, “PHENYLPYRAZOLE COMPOUND, AND PLANT DISEASE CONTROL METHOD” (priority 2022, published 2026)

Columns and labels:
Phakopsora pachyrhizi [1] = experiment: Test Example 11 Control Test Against Soybean Rust (pot test, spraying before inoculation); format: in vivo; conditions: 200 ppm foliage spray, soybeans (Kurosengoku), inoculated after 2 to 5 days
Method: (§1) The term of “non-treated well” in Test Example 4, Test Example 5, and Test Example 6 represents a well wherein a test was carried out under the same conditions as those described in each Test Example except for dispensing DMSO instead of a diluted solution with DMSO comprising the Present compound. Also, the term of “non-treated” in Test Examples 15 to 17 represents a test which was carried out under the same conditions as those described in each Test Example except for dispensing DMSO instead of a diluted solution with DMSO comprising the Present compound. Also, the term of “non-treated leaf disk” in Test Example 7 represents a leaf disk wherein a test was carried out under the same conditions as those described in the Test Example except for dispensing DMSO instead of a diluted solution with DMSO comprising the Present compound. Also, the term of “non-treated” in Test Example 10 and Test Example 11 means that a diluted solution with water of a formulation comprising the Present compound was not sprayed.
A plastic pot was filled with soil, soybeans (cultivar: Kurosengoku) were seeded thereto, and cultured in a greenhouse for 10 to 14 days. The Present compound 9, 10, 11, 13, 14, 15, 17, 18, 20, 21, 22, 23, 26, 27, 33, 34, 35, 36, 37, 38, 39, 40, 41, 42, 43, 44, 46, 47, 53, 54, 55, 56, 57, 58, 66, 67, 68, 69, 70, 71, 73, 74, 75, 76, 77, 78, 79, 80, 81, 82, 83, 84, 85, 86, 87, 88, 89, 90, 91, 92, 93, 94, 95, 96, 97, 98, 99, 100, 101, or 102 formulated according to the method described in the Formulation Example 1 was mixed with water in such a way that the concentration thereof was 200 ppm, and the resulting mixture was sprayed to foliage of the above soybeans so as to adequately adhere onto the surfaces of leaves of the above soybeans. After spraying the mixture, the soybeans were air-dried. After 2 to 5 days, an aqueous suspension of spores of Phakopsora pachyrhizi was inoculated by spraying to the soybeans. After the inoculation, the soybeans were placed in a greenhouse at 23° C. in daytime and at 20° C. in nighttime under a humid condition for 1 to 2 day(s), then cultured in a greenhouse for 12 days, and then a lesion area was investigated. As a result, the lesion area in the soybeans treated with each of the above Present compound was 30% or less relative to the lesion area in the non-treated soybeans.

Phakopsora pachyrhizi [2] = experiment: Test Example 15 Control Test Against Soybean Rust Fungus (spore germination, 96 well titer plate); format: cell-based; conditions: treatment concentration 1 ppm, 23° C., several hours
Method: as §1
The Present compound was diluted with DMSO to obtain a diluted solution containing 150 ppm of the compound, and 1 μL of the diluted solution was dispensed into a titer plate (96 well), and thereto was then dispensed 149 μL of an aqueous suspension (1.0×10^4/mL) of spores of Phakopsora pachyrhizi to which spores of Phakopsora pachyrhizi were suspended in advance. This plate was cultured at 23° C. for several hours, and then germinated spores of Phakopsora pachyrhizi were counted. As a result, when the treatment concentration was 1 ppm, the number of germinated spores in each well comprising any one of the Present compound 1, 11, 17, 18, 20, 23, 30, 33, 34, 35, 36, 37, 38, 39, 40, 41, 42, 43, 44, 46, 47, 48, 49, 50, 51, 52, 53, 54, 55, 56, 57, 58, 62, 63, 64, 65, 66, 67, 68, 69, 70, 71, 72, 73, 74, 75, 76, 77, 78, 79, 80, 81, 82, 83, 84, 85, 86, 87, 88, 89, 90, 91, 92, 93, 94, 95, 96, 97, 98, 99, 100, 101, or 102 as the test compound was 50% or less relative to the number of germinated spores in the non-treated well.

[3] = tested on: soybean rust fungus (Phakopsora pachyrhizi) having an amino acid substitution of F129L in a mitochondrial cytochrome b protein; experiment: Test Example 7 Control Test Against Soybean Rust (leaf disk); format: in vivo; conditions: 200 ppm, 10 μL per soybean leaf disk (cultivar: Kurosengoku), inoculated after 1 day
Method: as §1
A true leaf of a soybean (cultivar: Kurosengoku) was cut into a diameter of 1 cm to prepare each leaf disk. To each well of a 24 well microplate was dispensed 1 mL of an agar medium (agar concentration 1.2%), and then one of said leaf disk was placed on the agar medium in each well. To a mixture of Sorpol (registered trademark) 1200KX (0.5 μL), DMSO (4.5 μL), and xylene (5 μL) was added a DMSO solution (20 μL) comprising a test compound (10000 ppm), and the resulting mixture was mixed. The resulting mixture was diluted with ion exchange water to prepare a mixture comprising a prescribed concentration of the test compound.
The resulting mixture was sprayed into each leaf disk at a ratio of 10 μL per leaf disk. After 1 day, an aqueous suspension of spores of soybean rust fungus (Phakopsora pachyrhizi) having an amino acid substitution of F129L in a mitochondrial cytochrome b protein (1.0×10^5/mL) was inoculated by spraying on each leaf disk. After the inoculation, the microplate was placed into an artificial climate chamber (Lighting: 6 hours, Lights-out: 18 hours, Temperature: 23° C., Humidity: 60%). After 1 day, the leaf disks were air-dried until water droplets on the surfaces of the leaf disks disappeared, and the microplate was placed into the artificial climate chamber again for 12 days. Then, lesion area of soybean rust was investigated. As a result, when the prescribed concentration was 200 ppm, each lesion area of leaf disk treated with any one of the Present compound 9, 10, 11, 13, 14, 15, 16, 17, 18, 20, 32, 33, 34, 35, 36, 37, 38, 39, 40, 42, 43, 44, 47, 48, 49, 50, 51, 52, 53, 55, 56, 57, 58, 62, 63, 64, 65, 66, 67, 68, 69, 70, 71, 73, 74, 75, 76, 77, 78, 79, 80, 81, 82, 83, 84, 85, 86, 87, 88, 89, 90, 91, 92, 93, 94, 95, 96, 97, 98, 99, 100, 101, or 102 as the test compound was 30% or less relative to the lesion area of non-treated leaf disk.

Cochliobolus miyabeanus = experiment: Test Example 6 Control Test Against Rice Brown Spot Fungus (96 well titer plate growth); format: cell-based; conditions: 1 μL of 150 ppm DMSO solution + 150 μL YB liquid medium, 23° C., 3 days, absorbance at 550 nm
Method: as §1
Each of the Present compound 17, 33, 36, 37, 39, 40, 41, 42, 43, 44, 48, 49, 50, 51, 52, 53, 62, 68, 69, 70, 71, 76, 77, 79, 80, 81, 82, 83, 84, or 97 was diluted with DMSO to obtain a diluted solution containing 150 ppm of each compound, and 1 μL of the diluted solution was dispensed into a titer plate (96 well), and thereto was then dispensed 150 μL of a YB liquid medium to which spores of Cochliobolus miyabeanus were inoculated in advance. This plate was cultured at 23° C. for 3 days, thereby allowing Cochliobolus miyabeanus to undergo proliferation, and the absorbance at 550 nm of each well of the titer plate was then measured to determine a degree of growth of Cochliobolus miyabeanus. As a result, the degree of growth in the well treated with each of the above Present compounds was 50% or less relative to the degree of growth in the non-treated well.

O=S(=O)(c1cccc(F)c1)n1ccc(-c2cc(F)c(Br)c(F)c2)n1 [compound 17]
lesion area relative to the lesion area in the non-treated soybeans (Phakopsora pachyrhizi [1]): ≤ 30%
number of germinated spores relative to the non-treated well (Phakopsora pachyrhizi [2]): ≤ 50%
lesion area relative to the lesion area of non-treated leaf disk [3]: ≤ 30%
degree of growth relative to the degree of growth in the non-treated well (Cochliobolus miyabeanus): ≤ 50%

O=S(=O)(c1cccnc1)n1ccc(-c2ccc(Br)c(F)c2)n1 [compound 53]
lesion area relative to the lesion area in the non-treated soybeans (Phakopsora pachyrhizi [1]): ≤ 30%
number of germinated spores relative to the non-treated well (Phakopsora pachyrhizi [2]): ≤ 50%
lesion area relative to the lesion area of non-treated leaf disk [3]: ≤ 30%
degree of growth relative to the degree of growth in the non-treated well (Cochliobolus miyabeanus): ≤ 50%

Cc1ccc(-c2ccn(S(=O)(=O)c3ccoc3)n2)cc1F [compound 70]
lesion area relative to the lesion area in the non-treated soybeans (Phakopsora pachyrhizi [1]): ≤ 30%
number of germinated spores relative to the non-treated well (Phakopsora pachyrhizi [2]): ≤ 50%
lesion area relative to the lesion area of non-treated leaf disk [3]: ≤ 30%
degree of growth relative to the degree of growth in the non-treated well (Cochliobolus miyabeanus): ≤ 50%

O=S(=O)(c1ccoc1)n1ccc(-c2ccc(Br)c(F)c2)n1 [compound 52]
number of germinated spores relative to the non-treated well (Phakopsora pachyrhizi [2]): ≤ 50%
lesion area relative to the lesion area of non-treated leaf disk [3]: ≤ 30%
degree of growth relative to the degree of growth in the non-treated well (Cochliobolus miyabeanus): ≤ 50%

O=S(=O)(c1ccco1)n1ccc(-c2ccc(I)cc2)n1 [compound 82]
lesion area relative to the lesion area in the non-treated soybeans (Phakopsora pachyrhizi [1]): ≤ 30%
number of germinated spores relative to the non-treated well (Phakopsora pachyrhizi [2]): ≤ 50%
lesion area relative to the lesion area of non-treated leaf disk [3]: ≤ 30%
degree of growth relative to the degree of growth in the non-treated well (Cochliobolus miyabeanus): ≤ 50%

O=[N+]([O-])c1ccc(-c2ccn(S(=O)(=O)c3cccs3)n2)cc1 [compound 44]
lesion area relative to the lesion area in the non-treated soybeans (Phakopsora pachyrhizi [1]): ≤ 30%
number of germinated spores relative to the non-treated well (Phakopsora pachyrhizi [2]): ≤ 50%
lesion area relative to the lesion area of non-treated leaf disk [3]: ≤ 30%
degree of growth relative to the degree of growth in the non-treated well (Cochliobolus miyabeanus): ≤ 50%

Cc1ccc(-c2ccn(S(=O)(=O)c3cccs3)n2)cc1F [compound 71]
lesion area relative to the lesion area in the non-treated soybeans (Phakopsora pachyrhizi [1]): ≤ 30%
number of germinated spores relative to the non-treated well (Phakopsora pachyrhizi [2]): ≤ 50%
lesion area relative to the lesion area of non-treated leaf disk [3]: ≤ 30%
degree of growth relative to the degree of growth in the non-treated well (Cochliobolus miyabeanus): ≤ 50%

O=S(=O)(c1ccoc1)n1ccc(-c2ccc(I)cc2)n1 [compound 83]
lesion area relative to the lesion area in the non-treated soybeans (Phakopsora pachyrhizi [1]): ≤ 30%
number of germinated spores relative to the non-treated well (Phakopsora pachyrhizi [2]): ≤ 50%
lesion area relative to the lesion area of non-treated leaf disk [3]: ≤ 30%
degree of growth relative to the degree of growth in the non-treated well (Cochliobolus miyabeanus): ≤ 50%

O=S(=O)(c1ccco1)n1ccc(-c2ccc(Br)c(F)c2)n1 [compound 50]
number of germinated spores relative to the non-treated well (Phakopsora pachyrhizi [2]): ≤ 50%
lesion area relative to the lesion area of non-treated leaf disk [3]: ≤ 30%
degree of growth relative to the degree of growth in the non-treated well (Cochliobolus miyabeanus): ≤ 50%

CSc1ccc(-c2ccn(S(=O)(=O)c3cccs3)n2)cc1 [compound 41]
lesion area relative to the lesion area in the non-treated soybeans (Phakopsora pachyrhizi [1]): ≤ 30%
number of germinated spores relative to the non-treated well (Phakopsora pachyrhizi [2]): ≤ 50%
degree of growth relative to the degree of growth in the non-treated well (Cochliobolus miyabeanus): ≤ 50%

O=S(=O)(c1cccs1)n1ccc(-c2ccc(C(F)(F)F)c(F)c2)n1 [compound 39]
lesion area relative to the lesion area in the non-treated soybeans (Phakopsora pachyrhizi [1]): ≤ 30%
number of germinated spores relative to the non-treated well (Phakopsora pachyrhizi [2]): ≤ 50%
lesion area relative to the lesion area of non-treated leaf disk [3]: ≤ 30%
degree of growth relative to the degree of growth in the non-treated well (Cochliobolus miyabeanus): ≤ 50%

O=S(=O)(c1cccs1)n1ccc(-c2ccc3c(c2)CCC3)n1 [compound 62]
number of germinated spores relative to the non-treated well (Phakopsora pachyrhizi [2]): ≤ 50%
lesion area relative to the lesion area of non-treated leaf disk [3]: ≤ 30%
degree of growth relative to the degree of growth in the non-treated well (Cochliobolus miyabeanus): ≤ 50%

O=S(=O)(c1ccoc1)n1ccc(-c2ccc(Br)cc2)n1 [compound 51]
number of germinated spores relative to the non-treated well (Phakopsora pachyrhizi [2]): ≤ 50%
lesion area relative to the lesion area of non-treated leaf disk [3]: ≤ 30%
degree of growth relative to the degree of growth in the non-treated well (Cochliobolus miyabeanus): ≤ 50%

Cn1nccc1S(=O)(=O)n1ccc(-c2cc(F)c(Br)c(F)c2)n1 [compound 48]
number of germinated spores relative to the non-treated well (Phakopsora pachyrhizi [2]): ≤ 50%
lesion area relative to the lesion area of non-treated leaf disk [3]: ≤ 30%
degree of growth relative to the degree of growth in the non-treated well (Cochliobolus miyabeanus): ≤ 50%
